Measurements as given in PMC9329436, “Optimization of the 4-anilinoquin(az)oline scaffold as epidermal growth factor receptor (EGFR) inhibitors for chordoma utilizing a toxicology profiling assay platform” (Scientific Reports, 2022).
Where two headings read alike, the source gives them in different places.

Columns and labels:
Format in all cases: biochemical
[1] = target: T1, 320 wild-type protein kinases (Homo sapiens, UniProt O15111); details: IKK-alpha, singlicate
T1 sequence (O15111 1-745): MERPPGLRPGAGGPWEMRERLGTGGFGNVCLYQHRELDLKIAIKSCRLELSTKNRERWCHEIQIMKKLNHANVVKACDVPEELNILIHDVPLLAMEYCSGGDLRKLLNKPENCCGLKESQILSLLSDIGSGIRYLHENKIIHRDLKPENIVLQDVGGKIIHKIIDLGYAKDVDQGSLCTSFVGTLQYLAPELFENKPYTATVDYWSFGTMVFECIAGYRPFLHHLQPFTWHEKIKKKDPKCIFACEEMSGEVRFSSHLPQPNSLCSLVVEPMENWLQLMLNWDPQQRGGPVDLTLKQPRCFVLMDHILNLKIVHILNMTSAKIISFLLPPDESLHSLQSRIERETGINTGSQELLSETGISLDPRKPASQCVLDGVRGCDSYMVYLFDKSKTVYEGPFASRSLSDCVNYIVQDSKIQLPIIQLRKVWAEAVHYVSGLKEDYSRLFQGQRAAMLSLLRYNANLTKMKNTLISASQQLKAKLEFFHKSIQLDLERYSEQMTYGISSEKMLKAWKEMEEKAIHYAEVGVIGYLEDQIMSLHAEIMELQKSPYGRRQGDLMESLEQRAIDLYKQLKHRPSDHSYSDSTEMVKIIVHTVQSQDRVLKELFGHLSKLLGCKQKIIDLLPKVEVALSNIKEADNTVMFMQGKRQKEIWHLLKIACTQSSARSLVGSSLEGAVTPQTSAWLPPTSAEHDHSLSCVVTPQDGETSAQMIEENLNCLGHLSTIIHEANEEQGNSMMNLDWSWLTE
Excerpt: (§1) Table S4. Profiling of two compounds at two concentrations against 320 wild-type protein kinases; singlicate measurement; Residual activities (% of control).

[2] = target: T2, 320 wild-type protein kinases (Homo sapiens, UniProt O15530); details: singlicate
T2 sequence (O15530 1-556): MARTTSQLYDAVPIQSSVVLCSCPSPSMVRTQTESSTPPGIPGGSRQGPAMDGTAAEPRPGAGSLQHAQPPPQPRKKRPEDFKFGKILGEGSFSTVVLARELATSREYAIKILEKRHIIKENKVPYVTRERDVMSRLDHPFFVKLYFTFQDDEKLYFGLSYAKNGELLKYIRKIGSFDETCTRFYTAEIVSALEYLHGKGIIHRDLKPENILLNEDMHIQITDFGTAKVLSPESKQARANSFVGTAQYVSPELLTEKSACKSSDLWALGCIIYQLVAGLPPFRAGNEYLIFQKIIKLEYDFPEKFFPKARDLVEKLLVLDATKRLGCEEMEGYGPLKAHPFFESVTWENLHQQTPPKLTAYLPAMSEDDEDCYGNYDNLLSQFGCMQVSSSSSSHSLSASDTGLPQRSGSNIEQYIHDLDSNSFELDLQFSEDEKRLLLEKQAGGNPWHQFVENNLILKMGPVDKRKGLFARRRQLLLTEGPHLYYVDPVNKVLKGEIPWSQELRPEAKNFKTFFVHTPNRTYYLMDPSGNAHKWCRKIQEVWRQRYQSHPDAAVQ
Excerpt: as §1

[3] = target: 320 wild-type protein kinases (Homo sapiens, UniProt O75582); details: kinase RPS6KA5, singlicate
Chain of 320 wild-type protein kinases (Homo sapiens, UniProt O75582) (O75582 whole entry): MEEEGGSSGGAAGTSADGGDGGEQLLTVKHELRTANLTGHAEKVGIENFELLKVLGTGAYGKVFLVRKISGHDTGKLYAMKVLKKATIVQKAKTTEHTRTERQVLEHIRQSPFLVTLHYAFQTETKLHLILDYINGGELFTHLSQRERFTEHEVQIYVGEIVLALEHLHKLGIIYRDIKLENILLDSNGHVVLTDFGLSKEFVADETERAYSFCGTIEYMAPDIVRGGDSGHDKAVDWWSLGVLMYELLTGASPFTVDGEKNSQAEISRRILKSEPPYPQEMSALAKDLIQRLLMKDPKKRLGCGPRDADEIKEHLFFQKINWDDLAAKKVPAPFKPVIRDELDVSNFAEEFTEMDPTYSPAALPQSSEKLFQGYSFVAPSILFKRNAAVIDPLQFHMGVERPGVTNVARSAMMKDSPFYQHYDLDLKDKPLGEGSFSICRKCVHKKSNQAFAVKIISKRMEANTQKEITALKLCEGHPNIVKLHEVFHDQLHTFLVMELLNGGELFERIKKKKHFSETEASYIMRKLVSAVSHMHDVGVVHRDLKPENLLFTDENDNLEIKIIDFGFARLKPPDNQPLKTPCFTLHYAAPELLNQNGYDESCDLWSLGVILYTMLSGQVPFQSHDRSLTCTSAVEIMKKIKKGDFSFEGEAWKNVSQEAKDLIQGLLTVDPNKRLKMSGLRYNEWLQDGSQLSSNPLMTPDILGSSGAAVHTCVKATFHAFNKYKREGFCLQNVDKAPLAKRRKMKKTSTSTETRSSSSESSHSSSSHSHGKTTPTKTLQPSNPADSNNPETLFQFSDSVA
Excerpt: as §1

[4] = target: 320 wild-type protein kinases (Homo sapiens, UniProt P53350); details: singlicate
Chain of 320 wild-type protein kinases (Homo sapiens, UniProt P53350) (P53350 whole entry): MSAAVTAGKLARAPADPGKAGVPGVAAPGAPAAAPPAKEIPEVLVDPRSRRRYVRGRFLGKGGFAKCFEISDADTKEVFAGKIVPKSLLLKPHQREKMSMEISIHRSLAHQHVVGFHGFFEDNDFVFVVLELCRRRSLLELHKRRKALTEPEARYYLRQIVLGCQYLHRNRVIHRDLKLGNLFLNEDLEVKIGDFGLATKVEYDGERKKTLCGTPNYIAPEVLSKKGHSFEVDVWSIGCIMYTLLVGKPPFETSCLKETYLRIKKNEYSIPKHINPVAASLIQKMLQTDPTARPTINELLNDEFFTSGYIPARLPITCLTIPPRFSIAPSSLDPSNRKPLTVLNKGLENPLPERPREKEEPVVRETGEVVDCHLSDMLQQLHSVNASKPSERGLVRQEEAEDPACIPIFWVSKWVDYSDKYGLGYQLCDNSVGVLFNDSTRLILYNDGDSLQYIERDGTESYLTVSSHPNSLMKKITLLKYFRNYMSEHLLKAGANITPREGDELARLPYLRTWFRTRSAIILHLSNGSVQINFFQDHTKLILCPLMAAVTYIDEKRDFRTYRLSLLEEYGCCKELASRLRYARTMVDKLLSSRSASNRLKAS
Excerpt: as §1

[5] = target: 320 wild-type protein kinases (Homo sapiens, UniProt P68400); details: singlicate
Chain of 320 wild-type protein kinases (Homo sapiens, UniProt P68400) (P68400 whole entry): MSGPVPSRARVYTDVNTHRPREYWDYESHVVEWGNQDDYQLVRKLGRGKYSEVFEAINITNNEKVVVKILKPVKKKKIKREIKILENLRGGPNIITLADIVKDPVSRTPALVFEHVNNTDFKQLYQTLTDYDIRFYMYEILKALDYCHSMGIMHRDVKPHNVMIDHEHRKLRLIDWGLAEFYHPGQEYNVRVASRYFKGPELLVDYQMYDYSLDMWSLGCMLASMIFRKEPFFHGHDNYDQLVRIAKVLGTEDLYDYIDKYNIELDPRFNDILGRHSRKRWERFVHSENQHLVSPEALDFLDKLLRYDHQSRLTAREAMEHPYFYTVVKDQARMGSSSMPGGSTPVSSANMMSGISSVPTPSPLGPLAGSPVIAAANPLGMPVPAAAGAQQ
Excerpt: as §1

[6] = target: 320 wild-type protein kinases (Homo sapiens, UniProt Q00535); details: singlicate
Chain of 320 wild-type protein kinases (Homo sapiens, UniProt Q00535) (Q00535 whole entry): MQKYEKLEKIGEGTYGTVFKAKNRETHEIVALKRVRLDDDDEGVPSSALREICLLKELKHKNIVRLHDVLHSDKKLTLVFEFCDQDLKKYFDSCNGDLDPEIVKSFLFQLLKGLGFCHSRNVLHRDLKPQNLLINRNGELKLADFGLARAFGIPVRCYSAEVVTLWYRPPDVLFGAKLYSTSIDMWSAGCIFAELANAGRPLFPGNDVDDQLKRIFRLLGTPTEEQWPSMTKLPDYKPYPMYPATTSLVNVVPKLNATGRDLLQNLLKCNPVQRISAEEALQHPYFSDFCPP
Excerpt: as §1

[7] = target: T3, 320 wild-type protein kinases (Homo sapiens, UniProt Q13188); details: singlicate
T3 sequence (Q13188 1-491): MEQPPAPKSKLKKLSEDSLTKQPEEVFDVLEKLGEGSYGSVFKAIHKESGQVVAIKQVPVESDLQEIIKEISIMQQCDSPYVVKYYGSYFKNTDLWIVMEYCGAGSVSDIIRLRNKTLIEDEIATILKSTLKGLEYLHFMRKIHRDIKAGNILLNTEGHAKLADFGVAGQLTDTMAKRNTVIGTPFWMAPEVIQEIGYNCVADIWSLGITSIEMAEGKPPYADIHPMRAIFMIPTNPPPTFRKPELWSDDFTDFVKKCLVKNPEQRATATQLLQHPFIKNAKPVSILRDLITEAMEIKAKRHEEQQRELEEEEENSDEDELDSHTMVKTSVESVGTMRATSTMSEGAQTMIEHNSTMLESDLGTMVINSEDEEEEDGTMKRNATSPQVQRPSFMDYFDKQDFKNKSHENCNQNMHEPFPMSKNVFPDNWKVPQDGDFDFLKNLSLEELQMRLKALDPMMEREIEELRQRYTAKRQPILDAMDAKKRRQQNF
Excerpt: as §1

[8] = target: 320 wild-type protein kinases (Homo sapiens, UniProt Q8IU85); details: CAMK1D, singlicate
Chain of 320 wild-type protein kinases (Homo sapiens, UniProt Q8IU85) (Q8IU85 whole entry): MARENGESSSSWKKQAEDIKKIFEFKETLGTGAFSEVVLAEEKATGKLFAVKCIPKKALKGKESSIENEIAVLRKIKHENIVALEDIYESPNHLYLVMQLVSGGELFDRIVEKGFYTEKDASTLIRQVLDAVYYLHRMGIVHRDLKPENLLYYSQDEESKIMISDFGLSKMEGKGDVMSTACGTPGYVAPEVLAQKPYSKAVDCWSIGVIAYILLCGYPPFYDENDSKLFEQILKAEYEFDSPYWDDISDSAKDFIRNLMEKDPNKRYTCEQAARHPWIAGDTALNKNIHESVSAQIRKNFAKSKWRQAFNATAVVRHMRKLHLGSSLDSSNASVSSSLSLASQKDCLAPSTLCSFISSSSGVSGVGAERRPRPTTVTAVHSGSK
Excerpt: as §1

[9] = target: 320 wild-type protein kinases (Homo sapiens, UniProt Q9Y6M4); details: singlicate
Chain of 320 wild-type protein kinases (Homo sapiens, UniProt Q9Y6M4) (Q9Y6M4 whole entry): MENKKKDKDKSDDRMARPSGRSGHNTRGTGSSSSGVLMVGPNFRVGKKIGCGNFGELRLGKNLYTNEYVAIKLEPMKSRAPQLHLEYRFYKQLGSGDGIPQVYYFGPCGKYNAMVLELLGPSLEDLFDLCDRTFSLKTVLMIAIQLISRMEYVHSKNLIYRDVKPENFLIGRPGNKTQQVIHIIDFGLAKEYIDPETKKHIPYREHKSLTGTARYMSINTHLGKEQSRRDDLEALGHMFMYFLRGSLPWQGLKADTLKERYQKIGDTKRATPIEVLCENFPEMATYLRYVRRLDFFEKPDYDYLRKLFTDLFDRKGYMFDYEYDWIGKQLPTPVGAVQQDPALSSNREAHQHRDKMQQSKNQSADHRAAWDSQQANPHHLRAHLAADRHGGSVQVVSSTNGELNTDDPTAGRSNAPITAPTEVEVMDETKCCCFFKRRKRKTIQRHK
Excerpt: as §1

[10] = tested on: 320 wild-type protein kinases; details: singlicate
Excerpt: as §1

With `C#Cc1cc(Nc2ncnc3cc(I)ccc23)ccc1Cl` [Compound 41] the Residual activity ([1]; 1.0E-06 M) was 100 % of control, the Residual activity ([1]; 1.0E-07 M) was 109 % of control and the Residual activity ([2]; PDK1, 1.0E-06 M) was 77 % of control. The Residual activity ([2]; PDK1, 1.0E-07 M) was 96 % of control, the “Residual activity, RPS6KA5” value ([3]; assay conc. 1.0E-06 M) was 99 % of control and the “Residual activity, RPS6KA5” value ([3]; assay conc. 1.0E-07 M) was 112 % of control. The Residual activity ([4]; PLK1, 1.0E-06 M) was 98 % of control, the Residual activity ([4]; PLK1, 1.0E-07 M) was 98 % of control and the Residual activity ([5]; CK2-alpha1, 1.0E-06 M) was 99 % of control. For the same compound, the Residual activity ([5]; CK2-alpha1, 1.0E-07 M) was 104 % of control, the Residual activity ([6]; CDK5/p25NCK, 1.0E-06 M) was 100 % of control and the Residual activity ([6]; CDK5/p25NCK, 1.0E-07 M) was 119 % of control. The Residual activity ([6]; CDK5/p35NCK, 1.0E-06 M) was 86 % of control, the Residual activity ([6]; CDK5/p35NCK, 1.0E-07 M) was 87 % of control and the Residual activity ([7]; MST2, 1.0E-06 M) was 102 % of control. For the same compound, the Residual activity ([7]; MST2, 1.0E-07 M) was 113 % of control, the Residual activity ([8]; 1.0E-06 M) was 77 % of control and the Residual activity ([8]; 1.0E-07 M) was 86 % of control. The Residual activity ([9]; CK1-gamma3, 1.0E-06 M) was 118 % of control, the Residual activity ([9]; CK1-gamma3, 1.0E-07 M) was 121 % of control and the Residual activity ([10]; PKC-beta2, 1.0E-06 M) was 95 % of control. The Residual activity ([10]; PKC-beta2, 1.0E-07 M) was 98 % of control.

For `C#Cc1cc(Nc2ncnc3cc(OC)c(OC)cc23)ccc1Cl` [Compound 45], the Residual activity ([1]; 1.0E-06 M) was 95 % of control, the Residual activity ([1]; 1.0E-07 M) was 106 % of control and the Residual activity ([2]; PDK1, 1.0E-06 M) was 79 % of control. The Residual activity ([2]; PDK1, 1.0E-07 M) was 93 % of control, the “Residual activity, RPS6KA5” value ([3]; assay conc. 1.0E-06 M) was 107 % of control and the “Residual activity, RPS6KA5” value ([3]; assay conc. 1.0E-07 M) was 104 % of control. The Residual activity ([4]; PLK1, 1.0E-06 M) was 77 % of control, the Residual activity ([4]; PLK1, 1.0E-07 M) was 91 % of control and the Residual activity ([5]; CK2-alpha1, 1.0E-06 M) was 101 % of control. The Residual activity ([5]; CK2-alpha1, 1.0E-07 M) was 109 % of control, the Residual activity ([6]; CDK5/p25NCK, 1.0E-06 M) was 103 % of control and the Residual activity ([6]; CDK5/p25NCK, 1.0E-07 M) was 98 % of control. The Residual activity ([6]; CDK5/p35NCK, 1.0E-06 M) was 88 % of control, the Residual activity ([6]; CDK5/p35NCK, 1.0E-07 M) was 88 % of control and the Residual activity ([7]; MST2, 1.0E-06 M) was 102 % of control. For the same compound, the Residual activity ([7]; MST2, 1.0E-07 M) was 103 % of control, the Residual activity ([8]; 1.0E-06 M) was 84 % of control and the Residual activity ([8]; 1.0E-07 M) was 99 % of control. The Residual activity ([9]; CK1-gamma3, 1.0E-06 M) was 123 % of control, the Residual activity ([9]; CK1-gamma3, 1.0E-07 M) was 116 % of control and the Residual activity ([10]; PKC-beta2, 1.0E-06 M) was 95 % of control. For the same compound, the Residual activity ([10]; PKC-beta2, 1.0E-07 M) was 97 % of control.
